Results from US12186377B2, “Modulation of oxidative stress and amino acid metabolism for the treatment or prevention of diseases and disorders” (NEW YORK UNIVERSITY, priority 2019, dated 2025).

System: cell lines with different genetic status of Keap1
Assay: Relative viability in response to succinylacetone
Format: cell-based
Details: dominant negative Keap1 alleles vs Keap1 mutant cells, FIG. 35B
Excerpt: FIG. 35A depicts a western blot validation of various Keap1 cDNA constructs including WT and multiple mutants found in LUAD. FIG. 35B depicts the relative viability of cell lines with different genetic status of Keap1 in response to different concentrations of succinylacetone, an inhibitor of Alas1.

Q: How did the “relative viability in response to succinylacetone” value turn out when CC(=O)CC(=O)CCC(=O)O [succinylacetone, 4,6-Dioxoheptanoic acid] was run?
A: further sensitize Keap1 mutant cells to heme synthesis inhibition
